Tested on: bone marrow failure mouse induced by busulphan (BU)
Assay: Peripheral blood analysis in bone marrow failure model induced by busulphan (BU)
Type: in vivo, Balb/c mice
Description: 5-week-old female Balb/c mice were purchased from Orient Bio Inc. (Seongnam-si, Gyeonggi-do, Korea). All protocols of animal experiments were approved by Institutional Animal Care and Use Committee of Laboratory Animal Research Center, Chungbuk National University. The mice were fed by Teklad Global 18% protein rodent diet (Harlan, Iowa, USA) and had free access to drinking water. The mice were housed and bred under specific pathogen-free conditions, and were went through environmental acclimatization for one week before used in the animal experiments and were separated into three groups (n=70/group).
Bone marrow failure model induced by administering busulphan (BU) was designed according to the procedures previously described by Molyneux et al (Cell Biol Toxicol 27, 13-40, 2011) and the scheme is shown in FIG. 8. BU (Sigma chemicals, Poole, Dorset, UK) was dissolved in acetone to a final concentration of 18.8 mg/ml, diluted five-fold with distilled water, and was intraperitoneally administered three times for 5 days with the dose of 0.2 ml BU solution per mouse. Equal amount of five-fold diluted acetone solution without BU was administered to vehicle control group. QGR was dissolved in dimethylsulfoxide and diluted with distilled water to a final concentration of 1.25%. Mice were orally administered every two days with QGR (0.25 mg/mouse) for 63 days. Seven or eight mice were sacrificed on days of 1, 5, 10, 16, 25, 40, 49, and 63 after BU administration and were investigated to confirm the effect of QGR to recover bone marrow failure.
In order to evaluate the activity of QGR to recover anemia animal model induced by BU administration, peripheral blood was collected during an autopsy and were investigated. The collected peripheral blood was stored in the bottle containing EDTA to prevent a blood clotting, and the numbers of erythrocytes, leukocytes, and platelets, hematocrit (HCT) level, mean corpuscular volume (MCV), and mean corpuscular hemoglobin (MCH) were measured.

[1] = QGR 0.25 mg/mouse orally after BU

Q: `CC1OC(Oc2c(-c3ccc(O)c(O)c3)oc3cc(O)cc(O)c3c2=O)C(OC(=O)c2cc(O)c(O)c(O)c2)C(O)C1O` (stereo not drawn) [QGR, quercetin 3-O-β-(2″-galloyl)-rhamnopyranoside] was tested. Which “mean corpuscular volume (MCV)” value (BU group vs BU+QGR group) did it give?
A: BU administration group are significantly lower than those of BU+QGR administration group

Q: What about the “leukocyte numbers vs normal control group” value [1] of the same molecule?
A: slightly lower

Q: And the “recovery effect of leukocyte level, onset” value [1]?
A: ≥ 10 days

Q: What about the “recovery effect on erythrocyte level, onset” value [1] of the same molecule?
A: ≥ 5 days

Q: And the “recovery of reduced platelet numbers, onset” value [1]?
A: ≥ 16 days

Q: What about the “erythrocyte level vs normal control group” value (QGR 0.25 mg/mouse orally every two days after BU) of the same molecule?
A: slightly lower

Q: What about the “erythrocyte level vs positive control group (BU + vehicle)” value (QGR 0.25 mg/mouse orally every two days, days 5, 10, 16, 25, 49, 63) of the same molecule?
A: significantly higher

Q: What about the “leukocyte numbers vs positive control group (BU + vehicle)” value (day 10 up to day 63) of the same molecule?
A: higher level

Q: What about the “hemoglobin (HGB) level” value (pattern similar to erythrocytes) of the same molecule?
A: recovered the anemia

Q: And the platelet numbers (vs positive control group (BU + vehicle), significant differences continuously)?
A: steeply recovered
